The structures appear in SMILES notation.

Data set [1] has as its system Yeast #1. In words: Solvent compatibility with yeast corn mash fermentation, Yeast #1. To be noted: Yeast #1, corn mash. On the procedure: (§1) Dialkylsulfoxides and alkyl pyrrolidones, where the alkyl groups are independently C1 to C4, are particularly preferred. Dimethylsulfoxide (DMSO) and N-Methyl-2-Pyrrolidone (M-Pyrol or NMP) compatibility with yeast corn mash fermentations were evaluated with two yeasts (Yeast#1 and Yeast#2) commercially used in the fuel ethanol industry. Concentrations of 0 to 1200 ppm of either solvent were added at the beginning of dry-milled corn-mash fermentations along with either yeast.
(§2) Sterile saccharified 26% wt. %/v corn mash was prepared using substantially the same procedure described in Example 2. To each of 6 pre-sterilized Celstir™ fermentors (Wheaton Instruments, Millville, N.J.), 500 g sterile mash was aseptically added. The fermentors were temperature controlled to 32° C. using circulating water baths (Haake D8;G, Berlin, Germany) to pump water through the jackets of the Celstir fermentors. Magnetic stirrers (IKA-Lavortechnik, Staufen, Germany) were used to mix the fermentors at approximately 200 RPM. […] Then, to each fermentator was added 1) 1 ml of 0.2 μm filter-sterilized Urea stock solution (8 mM urea in fermentors); 2) 1 ml filter sterilized aqueous DMSO (Gaylord Chemical, CAS#67-68-5) or aqueous M-Pyrol (ISP, CAS#872-50-) solutions; and 3) 1.027 g Yeast#1 or Yeast#2 commercial active dry yeasts in 18 ml sterile water.
Samples (22 ml) were taken at 0, 6, 12, 24, 36, and 48 h and placed on ice to prevent growth. An 11 ml aliquot of each sample was serially diluted in 0.1% w/v sterile peptone water, and microbiologically plated onto MRS agar plates in duplicate. All plates were incubated for 48 h at 30° C. in an anaerobic CO2 incubation chamber, and manually enumerated for viable Lactobacilli. The remaining 11 ml aliquot of each sample was centrifuged (10K RPM, 4° C., 20 minutes) in a Sorvall RC-5C centrifuge. The liquid supernatant was then passed through a 0.2 μm membrane filter to remove any particulates and frozen for future analysis. Lactic acid, glycerol, ethanol, acetic acid, and glucose concentrations were determined by HPLC analysis. The samples were thawed and diluted to the required extent with Milli-Q water. Aliquots of the diluted samples (100 μl) were each mixed with an equal volume of 2% w/v boric acid (internal standard), and injected into a Biorad HPX-87H Aminex™ column equilibrated at 40° C. The eluent was 5 mM sulfuric acid flowing at a rate of 0.7 ml/min. The components were detected by a differential refractometer (Model 4210, Waters Chromatographic Division, Milford, Mass.) and the subsequent data processed by the supplied Waters Millenium32 software. All fermentations were performed in duplicate.

Data set [2] concerns Yeast #2. In words: Solvent compatibility with yeast corn mash fermentation, Yeast #2. The procedure: as §1, §2
Samples (22 ml) were taken at 0, 6, 12, 24, 36, and 48 h and placed on ice to prevent growth. An 11 ml aliquot of each sample was serially diluted in 0.1% w/v sterile peptone water, and microbiologically plated onto MRS agar plates in duplicate. All plates were incubated for 48 h at 30° C. in an anaerobic CO2 incubation chamber, and manually enumerated for viable Lactobacilli. […] Lactic acid, glycerol, ethanol, acetic acid, and glucose concentrations were determined by HPLC analysis. […] The components were detected by a differential refractometer (Model 4210, Waters Chromatographic Division, Milford, Mass.) and the subsequent data processed by the supplied Waters Millenium32 software. […]

In data set [3] the test system is humans. To be noted: cited from earlier work.

On to `C[S+](C)[O-]` [DMSO, Dimethylsulfoxide], for which the “Ethanol production (inhibition)” value in data set [1] (0 to 1200 ppm solvent) was “did not inhibit ethanol production”. Besides, the “Yeast viability and stress (glycerol)” value in data set [1] (1000 ppm solvent, 48 hours of exposure) is reported as “does not appear to affect the viability of Yeast #1 or stress Yeast #1”. In addition, the “Yeast performance (viability, glycerol, ethanol)” value in data set [2] (Yeast #2, corn mash, 0 to 1200 ppm solvent) is reported as “no adverse effect on yeast performance”.
For `CN1CCCC1=O` [NMP, N-Methyl-2-Pyrrolidone], the Ethanol production in data set [1] (1000 ppm solvent (control 8.1%)) is 7.8%; in data set [2] (Yeast #2, corn mash, 1000 ppm solvent, 48 hours (control 10%)), 9.1%. Also, the Yeast viability entry in data set [1] (solvent concentrations above 400 ppm) is “slight decline in yeast viability”. In addition, in data set [2] (Yeast #2, solvent concentrations >400 ppm), the Ethanol concentration trend result is “consistent trend towards lower concentrations of ethanol”.
As for `CCCCOC(=O)C(C)O` (stereo not drawn) [n-butyl lactate], the “Toxic concentration in air” value in data set [3] (humans, in air) was “about 4 ppm”. Further, the Toxicity classification entry in data set [3] (intraperitoneal route) is listed as “classified as a poison by intraperitoneal route”.

The values are drawn from patent publication US20080003215A1, “Use of pre-dissolved pristinamycin-type and polyether ionophore type antimicrobial agents in the production of ethanol” (priority 2006, published 2008).
